In patent US20080221161A1, “HETEROCYCLIC MODULATORS OF TGR5 FOR TREATMENT OF DISEASE” (KALYPSYS, INC., priority 2007, published 2008):

Target: T1, human TGR5 (Homo sapiens, UniProt Q8TDU6)
T1 construct: expressed in transfected cells; host or cells: HEK-293 cells, stably transfected (pcDNA 3.1, Fugene6, geneticin selection)
T1 sequence (Q8TDU6 1-330): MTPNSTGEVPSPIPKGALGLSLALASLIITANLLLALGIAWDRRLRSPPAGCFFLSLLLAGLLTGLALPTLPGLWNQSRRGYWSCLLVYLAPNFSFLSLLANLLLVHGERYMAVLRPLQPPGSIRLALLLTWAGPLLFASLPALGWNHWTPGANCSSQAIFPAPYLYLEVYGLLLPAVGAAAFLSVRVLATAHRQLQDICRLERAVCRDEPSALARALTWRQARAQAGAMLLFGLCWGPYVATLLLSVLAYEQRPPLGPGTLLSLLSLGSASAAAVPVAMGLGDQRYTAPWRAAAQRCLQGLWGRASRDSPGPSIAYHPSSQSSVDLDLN
Test: cAMP production assay in HEK293-TGR5 cells
Type: cell-based
Conditions: HEK293 cells stably expressing human TGR5; 30 minutes stimulation; LANCE cAMP TR-FRET; read-out: cAMP Production in 293-TGR5 Cells EC50
Description: HEK293 cells stably expressing TGR5 (HEK293-TGR5) were established by stably transfecting HEK-293 cells with an expression vector (pcDNA 3.1, Invetrogen) inserted with human TGR5 cDNA using Fugene6 (Roche, Indianapolis, Ind.) according to conventional methods. Cells were grown in DMEM (invitrogen, Carlsbad, Calif.) supplemented with 10% FBS, 1% penicillin/streptomycin under geneticin selection. The presence of TGR5 transcripts in these cells was confirmed using branched DNA (bDNA, Genospectra, Inc., Fremont Calif.) following the manufacturer's protocol and using specific probes for human TGR5. cAMP production assay was performed in high throughput 1536 well format using LANCE cAMP detection kit (Perkin Elmer Inc., Boston, Mass.) according to the manufacturer's protocol. Briefly, HEK293-TGR5 cells were harvested using non-enzymatic cell dissociation buffer (Invitrogen, Carlsbad, Calif.) and suspended in DMEM supplemented with 0.1% FBS at a density of 800,000 cells/ml. Alexa antibody was added to the cell suspension, and 4 ul of the mixture was dispensed in white opaque tissue culture treated Greiner 1536 well plates (USA Scientific, Inc., Ocala, Fla.). After an overnight incubation at 37C in an atmosphere of 10% CO2 and 95% humidity, 1 ul of 5 mM IBMX (Sigma, St. Louis, Mo.) solution in DMEM was dispensed for a final concentration of 1 mM. Cells were then stimulated with test compounds for 30 minutes, after which time 5 ul of detection reagent was added and incubated for 1-7 hrs at room temperature. TR-FRET signal was detected using the Viewlux (Perkin Elmer Inc., Boston Mass.). EC50 values were determined using Graph Pad Prizm analysis (GraphPad Software, Inc).

Structure (SMILES)	EC50 [µM]
COc1ccc2cc(CN(C)CCc3ccc(Cl)cc3)c(-c3ccsc3)nc2c1 [Example 35, 2-(4-Chlorophenyl)-N-((7-methoxy-2-(thiophen-3-yl)quinolin-3-yl)methyl)-N-methylethanamine]	> 10
COc1ccc2cc(CNCc3ccc(C(F)(F)F)cc3)c(-c3ncco3)nc2c1 [Example 37, 1-(7-Methoxy-2-(oxazol-2-yl)quinolin-3-yl)-N-(4-(trifluoromethyl)benzyl)methanamine]	> 10
COc1ccc2cc(CNCCc3ccc(Cl)cc3)c(-c3ncco3)nc2c1 [Example 38, 2-(4-Chlorophenyl)-N-((7-methoxy-2-(oxazol-2-yl)quinolin-3-yl)methyl)ethanamine]	< 10
CSc1ccc2cc(CNCCc3ccc(Br)cc3)c(-c3ccsc3)nc2c1 [Example 39, 2-(4-Bromophenyl)-N-((7-(methylthio)-2-(thiophen-3-yl)quinolin-3-yl)methyl)ethanamine]	< 10
CSc1ccc2cc(CNCc3ccc(C(F)(F)F)cc3)c(-c3ccsc3)nc2c1 [Example 40, 1-(7-(Methylthio)-2-(thiophen-3-yl)quinolin-3-yl)-N-(4-(trifluoromethyl)benzyl)methanamine]	> 10
FC(F)(F)c1ccc(CNCc2cc3ccc(Cl)cc3nc2-c2ccsc2)cc1 [Example 41, 1-(7-Chloro-2-(thiophen-3-yl)quinolin-3-yl)-N-(4-(trifluoromethyl)benzyl)methanamine]	> 10
Cc1ccc2cc(CNCc3ccc(C(F)(F)F)cc3)c(-c3ccsc3)nc2c1 [Example 44, 1-(7-Methyl-2-(thiophen-3-yl)quinolin-3-yl)-N-(4-(trifluoromethyl)benzyl)methanamine]	< 10
CCOc1ccc2cc(CNCCc3ccc(Br)cc3)c(-c3cccnc3)nc2c1 [Example 45, 2-(4-Bromophenyl)-N-((7-ethoxy-2-(pyridin-3-yl)quinolin-3-yl)methyl)ethanamine]	> 10
CCOc1ccc2cc(CNCc3ccc(C(F)(F)F)cc3)c(-c3cccnc3)nc2c1 [Example 46, 1-(7-Ethoxy-2-(pyridin-3-yl)quinolin-3-yl)-N-(4-(trifluoromethyl)benzyl)methanamine]	> 10
COc1ccc2cc(CNCc3ccc(C(F)(F)F)cc3)c(-c3ccccc3)nc2c1 [Example 48, 1-(7-Methoxy-2-phenylquinolin-3-yl)-N-(4-(trifluoromethyl)benzyl)methanamine]	< 10
CCOc1ccc2cc(CNCCc3ccc(Cl)cc3)c(-c3ccsc3)nc2c1 [Example 50, 2-(4-Chlorophenyl)-N-((7-ethoxy-2-(thiophen-3-yl)quinolin-3-yl)methyl)ethanamine]	< 10
CCOc1ccc2cc(CNCc3ccc(C(F)(F)F)cc3)c(-c3ccsc3)nc2c1 [Example 51, 1-(7-Ethoxy-2-(thiophen-3-yl)quinolin-3-yl)-N-(4-(trifluoromethyl)benzyl)methanamine]	< 10
COc1ccc2cc(CNCc3ccc(Br)cc3)c(-c3ccncc3)nc2c1 [Example 52, N-(4-Bromobenzyl)-1-(7-methoxy-2-(pyridin-4-yl)quinolin-3-yl)methanamine]	< 10
COc1cc(OC)c2cc(CNCc3ccc(C(F)(F)F)cc3)c(-c3ccsc3)nc2c1 [Example 53, 1-(5,7-Dimethoxy-2-(thiophen-3-yl)quinolin-3-yl)-N-(4-(trifluoromethyl)benzyl)methanamine]	< 10
COc1cc(OC)c2cc(CNCCc3ccc(Br)cc3)c(-c3ccsc3)nc2c1 [Example 54, 2-(4-Bromophenyl)-N-((5,7-dimethoxy-2-(thiophen-3-yl)quinolin-3-yl)methyl)ethanamine]	< 10
COc1ccc2cc(CNCc3ccc(C(F)(F)F)cc3)c(-c3cscc3C)nc2c1 [Example 55, 1-(7-Methoxy-2-(4-methylthiophen-3-yl)quinolin-3-yl)-N-(4-(trifluoromethyl)benzyl)methanamine]	> 10
COc1ccc2cc(CNCCc3ccc(Br)cc3)c(-c3cscc3C)nc2c1 [Example 56, 2-(4-Bromophenyl)-N-((7-methoxy-2-(4-methylthiophen-3-yl)quinolin-3-yl)methyl)ethanamine]	> 10
COc1ccc2cc(CNCCc3ccc(Cl)c(Cl)c3)c(-c3ccsc3)nc2c1 [Example 61, 2-(3,4-Dichlorophenyl)-N-((7-methoxy-2-(thiophen-3-yl)quinolin-3-yl)methyl)ethanamine]	< 10

Structure (SMILES)	EC50 [µM]
COc1ccc2cc(CNCc3ccc4c(c3)OCO4)c(-c3ccsc3)nc2c1 [Example 64, 1-(Benzo[d][1,3]dioxol-5-yl)-N-((7-methoxy-2-(thiophen-3-yl)quinolin-3-yl)methyl)methanamine]	> 10
COc1ccc2cc(CNCCc3ccc(OC)c(Br)c3)c(-c3ccsc3)nc2c1 [Example 65, 2-(3-Bromo-4-methoxyphenyl)-N-((7-methoxy-2-(thiophen-3-yl)quinolin-3-yl)methyl)ethanamine]	< 10
COc1ccc2cc(CNCc3ccc(Cl)c(Cl)c3)c(-c3ccsc3)nc2c1 [Example 66, N-(3,4-Dichlorobenzyl)-1-(7-methoxy-2-(thiophen-3-yl)quinolin-3-yl)methanamine]	< 10
COc1ccc2cc(CNCc3ccc([N+](=O)[O-])cc3)c(-c3ccsc3)nc2c1 [Example 67, 1-(7-Methoxy-2-(thiophen-3-yl)quinolin-3-yl)-N-(4-nitrobenzyl)methanamine]	< 10
COc1ccc2cc(CNc3ccccc3)c(-c3ccsc3)nc2c1 [Example 68, N-((7-Methoxy-2-(thiophen-3-yl)quinolin-3-yl)methyl)aniline]	< 10
COc1ccc2cc(CNc3ccc(Cl)cc3)c(-c3ccsc3)nc2c1 [Example 69, 4-Chloro-N-((7-methoxy-2-(thiophen-3-yl)quinolin-3-yl)methyl)aniline]	< 10
COc1ccc2cc(CNCc3ccncc3)c(-c3ccsc3)nc2c1 [Example 70, 1-(7-Methoxy-2-(thiophen-3-yl)quinolin-3-yl)-N-(pyridin-4-ylmethyl)methanamine]	> 10
COc1ccc2cc(CNCc3cnc(C)cn3)c(-c3ccsc3)nc2c1 [Example 71, 1-(7-Methoxy-2-(thiophen-3-yl)quinolin-3-yl)-N-((5-methylpyrazin-2-yl)methyl)methanamine]	< 10
COc1ccc2cc(CNCc3cccnc3)c(-c3ccsc3)nc2c1 [Example 72, 1-(7-Methoxy-2-(thiophen-3-yl)quinolin-3-yl)-N-(pyridin-3-ylmethyl)methanamine]	> 10
COc1ccc2cc(CNCCc3ccc(Br)cc3)c(-c3csc4ccccc34)nc2c1 [Example 73, N-((2-(Benzo[b]thiophen-3-yl)-7-methoxyquinolin-3-yl)methyl)-2-(4-bromophenyl)ethanamine]	< 10
COc1cc(OC)c(CNCc2cc3ccc(OC)cc3nc2-c2ccncc2)c(OC)c1 [Example 74, 1-(7-Methoxy-2-(pyridin-4-yl)quinolin-3-yl)-N-(2,4,6-trimethoxybenzyl)methanamine]	> 10
COc1ccc2cc(CNCc3ccc(C(C)(C)C)cc3)c(-c3ccncc3)nc2c1 [Example 75, N-(4-tert-Butylbenzyl)-1-(7-methoxy-2-(pyridin-4-yl)quinolin-3-yl)methanamine]	< 10
COc1ccc2cc(CNCCc3cccnc3)c(-c3ccncc3)nc2c1 [Example 76, N-((7-Methoxy-2-(pyridin-4-yl)quinolin-3-yl)methyl)-2-(pyridin-3-yl)ethanamine]	< 10
COc1ccc2cc(CNCc3ccc(C(F)(F)F)cc3)c(-c3ccco3)nc2c1 [Example 77, 1-(2-(Furan-2-yl)-7-methoxyquinolin-3-yl)-N-(4-(trifluoromethyl)benzyl)methanamine]	> 10
COc1ccc2cc(CNCc3ccco3)c(-c3ccsc3)nc2c1 [Example 78, 1-(Furan-2-yl)-N-((7-methoxy-2-(thiophen-3-yl)quinolin-3-yl)methyl)methanamine]	< 10
Oc1ccc2cc(CNCc3ccc(C(F)(F)F)cc3)c(-c3ccsc3)nc2c1 [Example 79, 2-(Thiophen-3-yl)-3-((4-(trifluoromethyl)benzylamino)methyl)quinolin-7-ol]	< 10
COc1ccc2cc(CNCCc3ccccn3)c(-c3ccncc3)nc2c1 [Example 80, N-((7-Methoxy-2-(pyridin-4-yl)quinolin-3-yl)methyl)-2-(pyridin-2-yl)ethanamine]	> 10
